From ChEMBL document CHEMBL4402510, “Caprazamycins: Promising lead structures acting on a novel antibacterial target MraY” (Eur J Med Chem, 2019)
Converted amounts (≈) assume the structure as drawn.

How the values were obtained:
[1] = target: T1, Phospho-N-acetylmuramoyl-pentapeptide-transferase (Bacillus subtilis (strain 168), UniProt Q03521); assay: Inhibition of MraY in Bacillus subtilis
T1 sequence (Q03521 whole entry): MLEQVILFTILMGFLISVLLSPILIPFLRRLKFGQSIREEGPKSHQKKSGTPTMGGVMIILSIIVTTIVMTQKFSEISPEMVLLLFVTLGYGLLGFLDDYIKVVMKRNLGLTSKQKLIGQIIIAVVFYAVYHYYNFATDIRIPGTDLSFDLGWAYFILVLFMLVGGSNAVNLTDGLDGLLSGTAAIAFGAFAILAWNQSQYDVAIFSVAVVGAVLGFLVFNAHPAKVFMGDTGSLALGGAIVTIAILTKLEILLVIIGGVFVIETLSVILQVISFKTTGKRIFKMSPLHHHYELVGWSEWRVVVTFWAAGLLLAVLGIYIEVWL

[2] = tested on: Staphylococcus aureus; assay: Antibacterial activity against methicillin resistant Staphylococcus aureus ATCC 43300; type: functional
[3] = tested on: Citrobacter freundii; assay: Antibacterial activity against Citrobacter freundii ATCC 8090; type: functional
[4] = tested on: Escherichia coli; assay: Antibacterial activity against Escherichia coli ATCC 8730; type: functional
[5] = target: T1, Phospho-N-acetylmuramoyl-pentapeptide-transferase; assay: Inhibition of MraY in Bacillus subtilis using UDP-MurNAc-[14C]pentapeptide as substrate by radioactivity scanning assay
[6] = tested on: Staphylococcus aureus; assay: Antibacterial activity against Staphylococcus aureus ATCC 25923; type: functional
[7] = tested on: Staphylococcus aureus; assay: Antibacterial activity against methicillin resistant Staphylococcus aureus; type: functional, organism-based
[8] = tested on: Enterococcus faecium; assay: Antibacterial activity against Enterococcus faecium ATCC 19434; type: functional
[9] = tested on: Pseudomonas aeruginosa; assay: Antibacterial activity against Pseudomonas aeruginosa ATCC 27853; type: functional
[10] = tested on: Mycobacterium tuberculosis; assay: Inhibition of WecA in Mycobacterium tuberculosis mc2 6230
[11] = tested on: Bacillus subtilis; assay: Antibacterial activity against Bacillus subtilis after 20 hrs by NCCLS-based two-fold broth dilution method; type: functional
[12] = tested on: Escherichia coli; assay: Antibacterial activity against Escherichia coli after 20 hrs by NCCLS-based two-fold broth dilution method; type: functional
[13] = Antibacterial activity against Mycobacterium avium subsp. avium ATCC 25291; type: functional
[14] = tested on: Mycobacterium tuberculosis; assay: Antibacterial activity against Mycobacterium tuberculosis after 20 hrs by NCCLS-based two-fold broth dilution method; type: functional
[15] = tested on: Mycolicibacterium smegmatis; assay: Antibacterial activity against Mycobacterium smegmatis after 20 hrs by NCCLS-based two-fold broth dilution method; type: functional
[16] = tested on: Staphylococcus aureus; assay: Antibacterial activity against Staphylococcus aureus FDA209P; type: functional; details: FDA 209P
[17] = tested on: Streptococcus pneumoniae; assay: Antibacterial activity against Streptococcus pneumoniae CR-8; type: functional
[18] = tested on: Mycobacterium avium subsp. paratuberculosis; assay: Antibacterial activity against Mycobacterium avium subsp. paratuberculosis ATCC 43015; type: functional
[19] = tested on: Klebsiella pneumoniae; assay: Antibacterial activity against Klebsiella pneumoniae after 20 hrs by NCCLS-based two-fold broth dilution method; type: functional
[20] = tested on: Mycobacterium avium; assay: Antibacterial activity against Mycobacterium avium after 20 hrs by NCCLS-based two-fold broth dilution method; type: functional
[21] = tested on: Staphylococcus aureus; assay: Antibacterial activity against methicillin resistant Staphylococcus aureus after 20 hrs by NCCLS-based two-fold broth dilution method; type: functional; details: read-out: MIC
[22] = tested on: Mycobacterium intracellulare; assay: Antibacterial activity against Mycobacterium intracellulare JCM3684; type: functional
[23] = tested on: Mycobacterium tuberculosis; assay: Antibacterial activity against Mycobacterium tuberculosis H37Rv; type: functional
[24] = tested on: Enterococcus faecalis; assay: Antibacterial activity against Enterococcus faecalis JCM 5803; type: functional
[25] = tested on: Mycolicibacterium vaccae; assay: Antibacterial activity against Mycobacterium vaccae after 20 hrs by NCCLS-based two-fold broth dilution method; type: functional
[26] = tested on: Staphylococcus aureus; assay: Antibacterial activity against methicillin resistant Staphylococcus aureus No. 5; type: functional
[27] = tested on: Mycolicibacterium smegmatis; assay: Inhibition of WecA in Mycobacterium smegmatis
[28] = tested on: Enterococcus faecalis; assay: Antibacterial activity against Enterococcus faecalis NCTC122103; type: functional
[29] = tested on: Mycobacterium tuberculosis; assay: Inhibition of WecA in Mycobacterium tuberculosis
[30] = tested on: Streptococcus pneumoniae; assay: Antibacterial activity against Streptococcus pneumoniae S-223; type: functional
[31] = tested on: Staphylococcus aureus; assay: Antibacterial activity against Staphylococcus aureus after 20 hrs by NCCLS-based two-fold broth dilution method; type: functional
[32] = tested on: Mycolicibacterium phlei; assay: Antibacterial activity against Mycobacterium phlei after 20 hrs by NCCLS-based two-fold broth dilution method; type: functional
[33] = tested on: Bacillus subtilis; assay: Inhibition of TagO in Bacillus subtilis
[34] = tested on: Mycobacterium intracellulare; assay: Antibacterial activity against Mycobacterium intracellulare after 20 hrs by NCCLS-based two-fold broth dilution method; type: functional
[35] = target: Phospho-N-acetylmuramoyl-pentapeptide-transferase (Escherichia coli, UniProt E2QF15); assay: Inhibition of MraY in Escherichia coli
Sequence of Phospho-N-acetylmuramoyl-pentapeptide-transferase (Escherichia coli, UniProt E2QF15) (E2QF15 whole entry): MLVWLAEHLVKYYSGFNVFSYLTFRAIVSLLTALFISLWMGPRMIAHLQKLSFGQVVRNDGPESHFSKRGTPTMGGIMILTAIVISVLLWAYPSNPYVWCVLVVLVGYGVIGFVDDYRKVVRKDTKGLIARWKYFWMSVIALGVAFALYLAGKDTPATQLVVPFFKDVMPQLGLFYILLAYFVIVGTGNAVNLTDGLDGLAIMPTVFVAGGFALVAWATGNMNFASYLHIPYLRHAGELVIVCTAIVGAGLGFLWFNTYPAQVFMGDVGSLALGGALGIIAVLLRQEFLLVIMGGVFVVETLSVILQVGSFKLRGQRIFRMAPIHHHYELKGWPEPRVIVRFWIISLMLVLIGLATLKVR

NC[C@H]1O[C@@H](O[C@@H](c2cn(CCCCCCCCCCOc3ccc(C(=O)c4ccccc4)cc3)nn2)[C@H]2O[C@@H](n3ccc(=O)[nH]c3=O)[C@H](O)[C@@H]2O)[C@H](O)[C@@H]1O
IC50 [1]: 125 µM | MIC [2]: 8 µg/mL (≈ 10.3 µM) | MIC [3]: > 128 µg/mL | MIC [4]: > 128 µg/mL | IC50 [5]: 100 µM | MIC [6]: 8 µg/mL (≈ 10.3 µM) | IC50 [7]: 100 µM | MIC [8]: > 128 µg/mL | MIC [9]: > 128 µg/mL

CCCCc1ccc(NC(=O)C2=CCN(C)[C@@H]([C@H](O[C@@H]3O[C@H](CN)[C@@H](O)[C@H]3O)[C@H]3O[C@@H](n4ccc(=O)[nH]c4=O)[C@H](O)[C@@H]3O)C(=O)N2C)cc1
MIC [10]: 0.04 µg/mL (≈ 0.0581 µM) | MIC [11]: 3.13 µg/mL (≈ 4.54 µM) | MIC [12]: > 100 µg/mL | IC50 [1]: 0.581 µM | MIC [13]: 0.2 to 1.56 µg/mL (≈ 0.29 to 2.27 µM) | MIC [14]: 1.56 µg/mL (≈ 2.27 µM) | MIC [15]: 6.25 µg/mL (≈ 9.07 µM) | MIC [16]: 8 to 100 µg/mL (≈ 11.6 to 145 µM) | MIC [17]: 8 to 100 µg/mL (≈ 11.6 to 145 µM) | MIC [18]: 0.2 to 1.56 µg/mL (≈ 0.29 to 2.27 µM) | MIC [19]: 50 µg/mL (≈ 72.6 µM) | MIC [20]: 0.39 to 1.56 µg/mL (≈ 0.566 to 2.27 µM) | MIC [21]: 100 µg/mL (≈ 145 µM) | MIC [22]: 0.2 to 1.56 µg/mL (≈ 0.29 to 2.27 µM) | MIC [23]: 0.2 to 1.56 µg/mL (≈ 0.29 to 2.27 µM) | MIC [24]: 8 to 100 µg/mL (≈ 11.6 to 145 µM) | MIC [25]: 50 µg/mL (≈ 72.6 µM) | MIC [26]: 8 to 100 µg/mL (≈ 11.6 to 145 µM) | MIC [27]: 0.0044 µg/mL (≈ 0.00639 µM) | MIC [28]: 8 to 100 µg/mL (≈ 11.6 to 145 µM) | MIC [29]: 0.04 µg/mL (≈ 0.0581 µM) | MIC [30]: 8 to 100 µg/mL (≈ 11.6 to 145 µM) | MIC [31]: 25 µg/mL (≈ 36.3 µM) | MIC [32]: 12.5 µg/mL (≈ 18.1 µM) | MIC [33]: 0.05 µg/mL (≈ 0.0726 µM) | MIC [34]: 0.2 µg/mL (≈ 0.29 µM)

NC[C@H]1O[C@@H](O[C@@H](CO)[C@H]2O[C@@H](n3ccc(=O)[nH]c3=O)[C@H](O)[C@@H]2O)[C@H](O)[C@@H]1O
IC50 [35]: 5 µM
